In patent publication US10420341B2, “Herbicidal phenylpyrimidines” (BASF SE, priority 2015, dated 2019):

Key:
[1] = system: APESV; test: greenhouse pre-emergence herbicidal test; type: in vivo, Apera spica-venti; settings: pre-emergence method, scale from 0 to 100
Outline: (§1)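 After each species was sown separately, test compounds in water were applied at once with finely distributing nozzles. Containers were then irrigated and covered until rooting, held at species-dependent temperatures (10-25° C. or 20-35° C.), and assessed over 2 to 4 weeks on a 0-100 injury scale.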

[2] = system: ECHCG; test: greenhouse pre-emergence herbicidal test; type: in vivo, Echinocloa crus-galli; settings: pre-emergence method, scale from 0 to 100
Outline: as §1

[3] = system: ABUTH; test: greenhouse post-emergence herbicidal test; type: in vivo, Abutilon theophrasti; settings: post-emergence method, scale from 0 to 100
Text: (§2) The seeds of the test plants were sown separately for each species. For the post-emergence treatment, the test plants were first grown to a height of 3 to 15 cm, depending on the plant habit, and only then treated with the active ingredients which had been suspended or emulsified in water. For this purpose, the test plants were either sown directly and grown in the same containers, or they were first grown separately as seedlings and transplanted into the test containers a few days prior to treatment. Depending on the species, the plants were kept at 10-25° C. or 20-35° C., respectively. The test period extended over 2 to 4 weeks. During this time, the plants were tended, and their response to the individual treatments was evaluated. Evaluation was carried out using a scale from 0 to 100. 100 means no emergence of the plants, or complete destruction of at least the aerial moieties, and 0 means no damage, or normal course of growth. […] The plants used in the greenhouse experiments were of the following species: [table]

[4] = system: ECHCG; test: greenhouse post-emergence herbicidal test; type: in vivo, Echinocloa crus-galli; settings: post-emergence method, application rate 500 g/ha, scale from 0 to 100
Outline: (§3)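 Scoring 0 (no damage) to 100 (no emergence or total destruction of aerial parts), taken over a 2 to 4 week period after post-emergence treatment at 3 to 15 cm plant height. Compounds applied as aqueous suspension or emulsion; greenhouse temperature 10-25° C. or 20-35° C. depending on species.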

[5] = system: POLCO; test: greenhouse post-emergence herbicidal test; type: in vivo, Polygonum convolvulus; settings: post-emergence method, scale from 0 to 100
Text: as §2

[6] = system: AVEFA; test: greenhouse post-emergence herbicidal test; type: in vivo, Avena fatua; settings: post-emergence method, application rate 500 g/ha, scale from 0 to 100
Outline: as §3

[7] = system: ALOMY; test: greenhouse post-emergence herbicidal test; type: in vivo, Alopercurus myosuroides; settings: post-emergence method, scale from 0 to 100
Outline: as §3

[8] = system: AMARE; test: greenhouse post-emergence herbicidal test; type: in vivo, Amaranthus retroflexus; settings: post-emergence method, application rate 500 g/ha, scale from 0 to 100
Text: as §2

Structure (SMILES)	herbicidal activity against APESV ([1]; application rate 500 g/ha)	herbicidal activity against POLCO ([5]; application rate 500 g/ha)	herbicidal activity against ECHCG ([2]; application rate 500 g/ha)	further results
CCc1ncc(-c2ccccc2OC)c(C(=O)O)n1 [example 16]				herbicidal activity against APESV ([1]; application rate 2000 g/ha): very good (a very good herbicidal activity is given at values of at least 85); herbicidal activity against ECHCG ([2]; application rate 2000 g/ha): very good (a very good herbicidal activity is given at values of at least 85); herbicidal activity against ABUTH ([3]; application rate 2000 g/ha): very good (a very good herbicidal activity is given at values of at least 85)
COc1ccccc1-c1cnc(C(C)C)nc1C(=O)O [example 35]				herbicidal activity against APESV ([1]; application rate 1000 g/ha): very good (a very good herbicidal activity is given at values of at least 85); herbicidal activity against ECHCG ([2]; application rate 1000 g/ha): very good (a very good herbicidal activity is given at values of at least 85); herbicidal activity against ABUTH ([3]; application rate 1000 g/ha): very good (a very good herbicidal activity is given at values of at least 85)
COc1ncc(-c2ccccc2Cl)c(C(=O)O)n1 [example 51]	very good (a very good herbicidal activity is given at values of at least 85)	very good (a very good herbicidal activity is given at values of at least 85)	very good (a very good herbicidal activity is given at values of at least 85)	herbicidal activity against ECHCG [4]: good (A good herbicidal activity is given at values of at least 70); herbicidal activity against AVEFA [6]: good (A good herbicidal activity is given at values of at least 70)
COC(=O)c1nc(OC)ncc1-c1ccccc1Cl [example 61]	very good (a very good herbicidal activity is given at values of at least 85)	very good (a very good herbicidal activity is given at values of at least 85)	very good (a very good herbicidal activity is given at values of at least 85)	herbicidal activity against ECHCG [4]: good (A good herbicidal activity is given at values of at least 70); herbicidal activity against ALOMY ([7]; application rate 500 g/ha): good (A good herbicidal activity is given at values of at least 70)
Cc1ccc(C)c(-c2cnc(N(C)C)nc2C(=O)O)c1 [example 129]	very good (a very good herbicidal activity is given at values of at least 85)		good (A good herbicidal activity is given at values of at least 70)	herbicidal activity against ABUTH ([3]; application rate 500 g/ha): good (A good herbicidal activity is given at values of at least 70)
O=C(O)c1nc(C2CC2)ncc1-c1c(F)cc(Cl)cc1Cl [example 148]				herbicidal activity against APESV ([1]; application rate 250 g/ha): very good (a very good herbicidal activity is given at values of at least 85); herbicidal activity against POLCO ([5]; application rate 250 g/ha): very good (a very good herbicidal activity is given at values of at least 85); herbicidal activity against ALOMY ([7]; application rate 250 g/ha): very good (a very good herbicidal activity is given at values of at least 85)
Cc1ccc(-c2cnc(C3CC3)nc2C(=O)O)c(C)c1 [example 168]	very good (a very good herbicidal activity is given at values of at least 85)	very good (a very good herbicidal activity is given at values of at least 85)	very good (a very good herbicidal activity is given at values of at least 85)	herbicidal activity against ALOMY ([7]; application rate 500 g/ha): good (A good herbicidal activity is given at values of at least 70)
O=C(O)c1nc(C2CC2)ncc1-c1ccccc1OC(F)F [example 181]	very good (a very good herbicidal activity is given at values of at least 85)	very good (a very good herbicidal activity is given at values of at least 85)	very good (a very good herbicidal activity is given at values of at least 85)	herbicidal activity against ECHCG [4]: good (A good herbicidal activity is given at values of at least 70)
COC(=O)c1nc(C2CC2)ncc1-c1cc(Cl)ccc1Cl [example 204]	very good (a very good herbicidal activity is given at values of at least 85)	very good (a very good herbicidal activity is given at values of at least 85)		herbicidal activity against AMARE [8]: very good (a very good herbicidal activity is given at values of at least 85)
COC(=O)c1nc(C2CC2)ncc1-c1cccc(F)c1Cl [example 210]	very good (a very good herbicidal activity is given at values of at least 85)	very good (a very good herbicidal activity is given at values of at least 85)	very good (a very good herbicidal activity is given at values of at least 85)	herbicidal activity against ECHCG [4]: very good (a very good herbicidal activity is given at values of at least 85)
COC(=O)c1nc(C2CC2)ncc1-c1c(C)cccc1C [example 225]	very good (a very good herbicidal activity is given at values of at least 85)	very good (a very good herbicidal activity is given at values of at least 85)	very good (a very good herbicidal activity is given at values of at least 85)	herbicidal activity against ECHCG [4]: good (A good herbicidal activity is given at values of at least 70)
COC(=O)c1nc(C2CCC2)ncc1-c1ccccc1Cl [example 277]	good (A good herbicidal activity is given at values of at least 70)			herbicidal activity against ABUTH ([3]; application rate 500 g/ha): very good (a very good herbicidal activity is given at values of at least 85)
CC(C)(C)SC(=O)c1nc(C2CC2)ncc1-c1ccccc1Cl [example 281]	very good (a very good herbicidal activity is given at values of at least 85)	very good (a very good herbicidal activity is given at values of at least 85)		herbicidal activity against ALOMY ([7]; application rate 500 g/ha): very good (a very good herbicidal activity is given at values of at least 85)
CCCOc1ccc(C(F)(F)F)cc1-c1cnc(C2CC2)nc1C(=O)O [example 306]				herbicidal activity against ABUTH ([3]; application rate 1000 g/ha): very good (a very good herbicidal activity is given at values of at least 85)
COC(=O)c1nc(C2CC2)ncc1-c1ccccc1C(F)F [example 308]	very good (a very good herbicidal activity is given at values of at least 85)	very good (a very good herbicidal activity is given at values of at least 85)	very good (a very good herbicidal activity is given at values of at least 85)	herbicidal activity against ALOMY ([7]; application rate 500 g/ha): very good (a very good herbicidal activity is given at values of at least 85); herbicidal activity against AVEFA [6]: very good (a very good herbicidal activity is given at values of at least 85)
O=C(O)c1nc(C2CC2)ncc1-c1ccccc1C(F)F [example 309]	very good (a very good herbicidal activity is given at values of at least 85)	very good (a very good herbicidal activity is given at values of at least 85)	very good (a very good herbicidal activity is given at values of at least 85)	herbicidal activity against ALOMY ([7]; application rate 500 g/ha): very good (a very good herbicidal activity is given at values of at least 85); herbicidal activity against AVEFA [6]: very good (a very good herbicidal activity is given at values of at least 85)
O=C(O)c1nc(C2CC2)ncc1-c1ccccc1SC(F)(F)F [example 310]				herbicidal activity against ABUTH ([3]; application rate 1000 g/ha): good (A good herbicidal activity is given at values of at least 70)
O=C(O)c1ccccc1-c1cnc(C2CC2)nc1C(=O)O [example 318]				herbicidal activity against ECHCG ([2]; application rate 2000 g/ha): very good (a very good herbicidal activity is given at values of at least 85); herbicidal activity against ABUTH ([3]; application rate 2000 g/ha): very good (a very good herbicidal activity is given at values of at least 85)
